We go through four compounds from patent publication US7049322B2 (priority 2002, dated 2006).

Data set [1] can be described thus: XRPD after storage in a closed vial at ambient conditions. The format is physicochemical. The note with it: 31 days. On the procedure: X-ray powder diffraction analyses were carried out on a Shimadzu XRD-6000 X-ray powder diffractometer using Cu Kα radiation having a wavelength of 1.5406 Å. The instrument is equipped with a fine-focus X-ray tube. The tube power was set by setting potential difference at 40 kV, and current 40 mA. The divergence and scattering slits were set at 1° and the receiving slit was set at 0.15 mm. Diffracted radiation was detected by a NaI scintillation detector. A theta-two theta continuous scan at 3°/min (0.4 sec/0.02° step) from 2.5 to 40 °2θ was performed. A silicon standard was analyzed each day to check the instrument alignment. Each sample was analyzed in a quartz sample holder. A variable temperature (VT-XRPD) experiment was performed on one form. The sample was prepared for analysis by pressing it into a variable temperature holder. A powder pattern was collected initially at 35° C. and again, after heating, at 200° C.

Data set [2] can be described thus: Moisture sorption/desorption (VTI SGA-100 moisture balance). Type of data set: physicochemical. The following applies: for hygroscopicity: 5 to 95% RH. The source says: The samples were not dried prior to analysis.
Data set [3] in a line: Dehydration/desolvation under vacuum, XRPD. The format is physicochemical. An excerpt: The characterization of this weight loss as THF solvent is supported by the ^1H NMR data.
The conditions of data set [4]: clinical trials, cited from earlier work.

SMILES strings stand for the structures.

On to `CC[C@@]1(O)C(=O)OCc2c1cc1n(c2=O)Cc2cc3c([N+](=O)[O-])cccc3nc2-1` [Form B, 9-nitrocamptothecin], for which the “stability of the crystalline polymorph (XRPD pattern unchanged)” value in data set [1] is given as “relatively stable”. Moreover, the “water lost upon equilibration at 5% RH” value in data set [2] (5% RH) came out at 0.98%. In addition, the hygroscopicity result in data set [2] is “relatively hygroscopic”.

`CC[C@@]1(O)C(=O)OCc2c1cc1n(c2=O)Cc2cc3c([N+](=O)[O-])cccc3nc2-1` [Form A, 9-nitrocamptothecin]: the “water gained upon equilibration to 5% RH” value in data set [2] (5% RH) amounted to 0.01%. Besides, in data set [2], the hygroscopicity entry is on record as “not hygroscopic”.

As for `CC[C@@]1(O)C(=O)OCc2c1cc1n(c2=O)Cc2cc3c([N+](=O)[O-])cccc3nc2-1` [Form C, 9-nitrocamptothecin], in data set [3], the “form after attempted desolvation” value was “becomes amorphous”.

With `CC[C@@](O)(C(=O)[O-])c1cc2n(c(=O)c1CO)Cc1cc3ccccc3nc1-2.[Na+]` [Sodium camptothecin], the side effects result in data set [4] (administered intravenously) was “unpredictable side effects such as myelosuppression and hemorrhagic cystitis”. Further, the antineoplastic activity entry in data set [4] (early 1970's) is given as “found to have antineoplastic activity”.
